Results: PubChem BioAssay (NCI)
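Values below derive from 48-hour exposures of cells grown in 96-well plates, with endpoints linearly interpolated between the two concentrations bracketing the appropriate inhibition level. Abbreviation: GI50, concentration required for 50% inhibition of growth. TGI denotes the concentration required for complete inhibition of growth.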

Legend:
Test in all cases: NCI-60 cell line screen, 48 h
A549 NSCLC = tested on: A549 NSCLC
OVCAR-3 ovarian = tested on: OVCAR-3 ovarian
HCT-15 colon = tested on: HCT-15 colon
K-562 leukemia = tested on: K-562 leukemia
T-47D breast = tested on: T-47D breast
MDA-MB-468 breast = tested on: MDA-MB-468 breast
786-0 renal = tested on: 786-0 renal
NCI-H460 lung = tested on: NCI-H460 lung
DU-145 prostate = tested on: DU-145 prostate
TK-10 renal = tested on: TK-10 renal
PC-3 prostate = tested on: PC-3 prostate
SF-295 CNS = tested on: SF-295 CNS
NCI-H23 lung = tested on: NCI-H23 lung
MCF7 breast = tested on: MCF7 breast
HL-60(TB) leukemia = tested on: HL-60(TB) leukemia
CAKI-1 renal = tested on: CAKI-1 renal
MALME-3M melanoma = tested on: MALME-3M melanoma
MOLT-4 leukemia = tested on: MOLT-4 leukemia
KM12 colon = tested on: KM12 colon
SW-620 colon = tested on: SW-620 colon
LOX IMVI melanoma = tested on: LOX IMVI melanoma
BT-549 breast = tested on: BT-549 breast
HOP-62 NSCLC = tested on: HOP-62 NSCLC
U251 CNS = tested on: U251 CNS
SK-MEL-28 melanoma = tested on: SK-MEL-28 melanoma
A498 renal = tested on: A498 renal
UACC-62 melanoma = tested on: UACC-62 melanoma
NCI-H522 lung = tested on: NCI-H522 lung
OVCAR-8 ovarian = tested on: OVCAR-8 ovarian
NCI/ADR-RES ovarian = tested on: NCI/ADR-RES ovarian
MDA-MB-435 = tested on: MDA-MB-435
IGROV1 ovarian = tested on: IGROV1 ovarian
NCI-H226 lung = tested on: NCI-H226 lung
HT29 colon = tested on: HT29 colon
HCT-116 colon = tested on: HCT-116 colon
HCC-2998 colon = tested on: HCC-2998 colon
SF-268 CNS = tested on: SF-268 CNS
UACC-257 melanoma = tested on: UACC-257 melanoma
COLO 205 colon = tested on: COLO 205 colon
SF-539 CNS = tested on: SF-539 CNS
ACHN renal = tested on: ACHN renal
OVCAR-5 ovarian = tested on: OVCAR-5 ovarian
RPMI-8226 leukemia = tested on: RPMI-8226 leukemia
SR leukemia = tested on: SR leukemia
M14 melanoma = tested on: M14 melanoma
OVCAR-4 ovarian = tested on: OVCAR-4 ovarian
HS 578T breast = tested on: HS 578T breast
RXF 393 renal = tested on: RXF 393 renal
SNB-19 CNS = tested on: SNB-19 CNS
SN12C renal = tested on: SN12C renal
HOP-92 NSCLC = tested on: HOP-92 NSCLC
SK-OV-3 ovarian = tested on: SK-OV-3 ovarian
SK-MEL-5 melanoma = tested on: SK-MEL-5 melanoma

Work on CC[C@]12C=CCN3CC[C@@]4(c5ccc(OC)cc5N(C)[C@H]4[C@@](O)(C(=O)OC)[C@@H]1OC(=O)CCCC[P+](c1ccc(OC)cc1)(c1ccc(OC)cc1)c1ccc(OC)cc1)[C@@H]32 yielded a GI50 (A549 NSCLC) of 1650 nM, a TGI (A549 NSCLC) of 11500 nM and a GI50 (OVCAR-3 ovarian) of 634 nM. The TGI (OVCAR-3 ovarian) was 2330 nM, the GI50 (HCT-15 colon) was 8790 nM and the TGI (HCT-15 colon) was 22300 nM. For the same compound, the GI50 (K-562 leukemia) was 675 nM, the TGI (K-562 leukemia) was 2530 nM and the GI50 (T-47D breast) was 383 nM. The TGI (T-47D breast) was 2830 nM, the GI50 (MDA-MB-468 breast) was 264 nM and the TGI (MDA-MB-468 breast) was 799 nM. For the same compound, the GI50 (786-0 renal) was 2590 nM, the TGI (786-0 renal) was 8040 nM and the GI50 (NCI-H460 lung) was 1150 nM. For the same compound, the TGI (NCI-H460 lung) was 11200 nM, the GI50 (DU-145 prostate) was 1600 nM and the TGI (DU-145 prostate) was 12300 nM. It also gave a GI50 (TK-10 renal) of 1670 nM, a TGI (TK-10 renal) of 3800 nM and a GI50 (PC-3 prostate) of 562 nM. It also gave a TGI (PC-3 prostate) of 5900 nM, a GI50 (SF-295 CNS) of 1970 nM and a TGI (SF-295 CNS) of 5440 nM. For the same compound, the GI50 (NCI-H23 lung) was 1190 nM, the TGI (NCI-H23 lung) was 4740 nM and the GI50 (MCF7 breast) was 105 nM. The TGI (MCF7 breast) was 225 nM, the GI50 (HL-60(TB) leukemia) was 234 nM and the TGI (HL-60(TB) leukemia) was 674 nM. It also gave a GI50 (CAKI-1 renal) of 15200 nM, a TGI (CAKI-1 renal) of 29800 nM and a GI50 (MALME-3M melanoma) of 1130 nM. It also gave a TGI (MALME-3M melanoma) of 2410 nM, a GI50 (MOLT-4 leukemia) of 1180 nM and a TGI (MOLT-4 leukemia) of 3210 nM. For the same compound, the GI50 (KM12 colon) was 675 nM, the TGI (KM12 colon) was 1990 nM and the GI50 (SW-620 colon) was 1060 nM. The TGI (SW-620 colon) was 6430 nM, the GI50 (LOX IMVI melanoma) was 1110 nM and the TGI (LOX IMVI melanoma) was 2350 nM. For the same compound, the GI50 (BT-549 breast) was 1250 nM, the TGI (BT-549 breast) was 2600 nM and the GI50 (HOP-62 NSCLC) was 2420 nM. For the same compound, the TGI (HOP-62 NSCLC) was 7120 nM, the GI50 (U251 CNS) was 392 nM and the TGI (U251 CNS) was 1450 nM. For the same compound, the GI50 (SK-MEL-28 melanoma) was 486 nM, the TGI (SK-MEL-28 melanoma) was 1730 nM and the GI50 (A498 renal) was 2930 nM. It also gave a TGI (A498 renal) of 11400 nM, a GI50 (UACC-62 melanoma) of 963 nM and a TGI (UACC-62 melanoma) of 2200 nM. The GI50 (NCI-H522 lung) was 341 nM, the TGI (NCI-H522 lung) was 1250 nM and the GI50 (OVCAR-8 ovarian) was 1990 nM. It also gave a TGI (OVCAR-8 ovarian) of 9600 nM, a GI50 (NCI/ADR-RES ovarian) of 20500 nM and a TGI (NCI/ADR-RES ovarian) of 55900 nM. The GI50 (MDA-MB-435) was 521 nM, the TGI (MDA-MB-435) was 1830 nM and the GI50 (IGROV1 ovarian) was 548 nM. The TGI (IGROV1 ovarian) was 1860 nM, the GI50 (NCI-H226 lung) was 2030 nM and the TGI (NCI-H226 lung) was 7490 nM. The GI50 (HT29 colon) was 511 nM, the TGI (HT29 colon) was 2020 nM and the GI50 (HCT-116 colon) was 1300 nM. For the same compound, the TGI (HCT-116 colon) was 7760 nM, the GI50 (HCC-2998 colon) was 617 nM and the TGI (HCC-2998 colon) was 1850 nM. It also gave a GI50 (SF-268 CNS) of 1470 nM, a TGI (SF-268 CNS) of 3490 nM and a GI50 (UACC-257 melanoma) of 792 nM. It also gave a TGI (UACC-257 melanoma) of 2310 nM, a GI50 (COLO 205 colon) of 214 nM and a TGI (COLO 205 colon) of 450 nM. For the same compound, the GI50 (SF-539 CNS) was 1520 nM, the TGI (SF-539 CNS) was 5440 nM and the GI50 (ACHN renal) was 6280 nM. The TGI (ACHN renal) was 19700 nM, the GI50 (OVCAR-5 ovarian) was 2130 nM and the TGI (OVCAR-5 ovarian) was 7150 nM. It also gave a GI50 (RPMI-8226 leukemia) of 299 nM, a TGI (RPMI-8226 leukemia) of 969 nM and a GI50 (SR leukemia) of 428 nM. It also gave a TGI (SR leukemia) of 1700 nM, a GI50 (M14 melanoma) of 1200 nM and a TGI (M14 melanoma) of 2740 nM. It also gave a GI50 (OVCAR-4 ovarian) of 1570 nM, a TGI (OVCAR-4 ovarian) of 11600 nM and a GI50 (HS 578T breast) of 1510 nM. The TGI (HS 578T breast) was 4990 nM, the GI50 (RXF 393 renal) was 524 nM and the TGI (RXF 393 renal) was 2040 nM. The GI50 (SNB-19 CNS) was 484 nM, the TGI (SNB-19 CNS) was 1950 nM and the GI50 (SN12C renal) was 1180 nM. It also gave a TGI (SN12C renal) of 3070 nM, a GI50 (HOP-92 NSCLC) of 520 nM and a TGI (HOP-92 NSCLC) of 2640 nM. It also gave a GI50 (SK-OV-3 ovarian) of 1400 nM, a TGI (SK-OV-3 ovarian) of 4520 nM and a GI50 (SK-MEL-5 melanoma) of 1600 nM. The TGI (SK-MEL-5 melanoma) was 2950 nM.
